Earlier results on one compound are cited in patent publication US20080014263A1, “Amorphous eprosartan mesylate and process for the preparation thereof” (Glenmark Pharmaceuticals Limited, priority 2006, published 2008).

Structures are written as SMILES. Where a name gives a salt, the structure may show the parent alone.

The conditions of this data set: white to off-white free-flowing crystalline powder.

Regarding `CCCCc1ncc(/C=C(\Cc2cccs2)C(=O)O)n1Cc1ccc(C(=O)O)cc1` [Eprosartan mesylate, monomethanesulphonate of (E)-2-butyl-1-(p-carboxybenzyl)-α-2-thienylmethylimidazole-5-acrylic acid], where the note is “ethanol”, the solubility in ethanol result was “freely soluble”. Moreover, the solubility in water entry (water) is “insoluble”.
